Data set [1] can be described thus: Peptide stability in simulated gastric fluid. In kind it is in vitro ADME. As to conditions: SGF pH 1.2 with pepsin, 37 °C.
For data set [2], the target named is T1, mouse KOR (Mus musculus, UniProt P33534). The data set is described as follows: Functional cAMP assay. In kind it is cell-based. As to conditions: for KOR activation in cAMP assay (in words): HEK293 cells stably expressing mouse KOR; for Emax: normalized to dyn A 1–13 = 100%, read-out: efficacy cAMP Emax ± SD. (In general: Changes in cAMP serve as a functional read-out for many G protein-coupled receptors.)

In data set [3] the target is T1, mouse KOR. In words: Radioligand competition binding assay ([3H]-diprenorphine displacement). To be noted: 1 nM [3H]-diprenorphine, HEK293 cell membranes stably expressing mouse KOR; read-out: affinity Ki ± SD. On the technique in general: Displacement assays read how much labelled ligand stays bound in the presence of the test substance.
In data set [4] the test system is motor coordination in mice. As to conditions: mouse, in vivo, ip, 5 mg/kg.
Data set [5] has as its target T2, mouse KOR-EGFP and β-arrestin-2-nano-luciferase (Mus musculus, UniProt P33534).
T2 construct: expressed in transfected cells; host or cells: HEK293 (transient, jetPRIME)
In words: BRET β-arrestin-2 recruitment assay. In kind it is cell-based. As to conditions: normalized to maximum recruitment of dyn A 1–13. In general terms: Bioluminescence resonance energy transfer reports proximity on the nanometre scale.

Data set [6] relates to colonic nociceptors from CVH mice. In words: Ex vivo assessment of colonic nociceptor mechanosensitivity. Also on record: species or system mouse. The method, then:
Single-unit extracellular recordings from splanchnic colonic afferent nerves were performed as previously described.[42],[43],[45],[46],[78] […] The tissue was transferred to ice-cold Krebs solution, and after further dissection, the distal colon was opened longitudinally and pinned flat with its mucosal side up in a specialized, SYLGARD 184-lined (Dow Corning Corp., Midland, MI) organ bath consisting of two adjacent, clear acrylic compartments (Danz Instrument Service, Adelaide, South Australia, Australia). The neurovascular bundle containing the splanchnic nerve was extended from the tissue compartment and laid onto a mirror in the recording compartment. A movable wall with a small “mouse hole” was lowered into position to allow passage of the nerves, and the recording chamber was filled with paraffin oil. The colonic compartment was superfused with a modified Krebs solution (117.9 mM NaCl, 4.7 mM KCl, 25 mM NaHCO3, 1.3 mM NaH2PO4, 1.2 mM MgSO4(H2O)7, 2.5 mM CaCl2, and 11.1 mM D-glucose) and gassed with carbogen (95% O2 and 5% CO2) at a temperature of 34 °C. Smooth muscle activity and endogenous prostaglandins were suppressed by the addition of the L-type calcium channel antagonist nifedipine (1 μM) and prostaglandin synthesis inhibitor indomethacin (3 μM), respectively. […]

Several values for one entry are separate records, joined by “and”; a condition that tells them apart may be missing. Equal values may be shown once. Entries after “also recorded” stand apart in the source; their conditions may differ. Bridge positions count the residues as written; N and C are the ends. Square brackets hold non-standard residues; d marks the D form. Peptide text beside a SMILES is read from it.

For the compound `CC[C@H](C)[C@H](NC(=O)[C@H](CCCN=C(N)N)NC(=O)[C@H](CCCN=C(N)N)NC(=O)[C@H](CC(C)C)NC(=O)[C@H](Cc1ccccc1)NC(=O)CNC(=O)CNC(=O)[C@@H](N)Cc1ccc(O)cc1)C(=O)N[C@@H](CCCN=C(N)N)C(=O)N1CCC[C@H]1C(=O)N[C@@H](CCCCN)C(=O)N[C@@H](CC(C)C)C(=O)N[C@@H](CCCCN)C(N)=O` [dyn A 1–13], the “degradation in simulated gastric fluid (in words)” value in data set [1] is on record as “fully degraded after 15 min”.

With `CC[C@H](C)[C@@H]1NC(=O)[C@H](CCCNC(=N)N)NC(=O)[C@H](CCCNC(=N)N)NC(=O)[C@H](CC(C)C)NC(=O)[C@H](Cc2ccccc2)NC(=O)CNC(=O)CNC(=O)[C@H](Cc2ccc(O)cc2)NC(=O)[C@@H]2CSSC[C@H](NC(=O)[C@H](CCCCN)NC(=O)[C@H](CC(C)C)NC(=O)[C@H](CCCCN)NC(=O)[C@@H]3CCCN3C(=O)[C@H](CCCNC(=N)N)NC1=O)C(=O)N[C@@H](Cc1ccccc1)C(=O)N1CCC[C@H]1C(=O)N[C@@H](CC(=O)O)C(=O)NCC(=O)N[C@@H](CCCNC(=N)N)C(=O)N2` [helianorphin-1], at mouse KOR [2], the “KOR activation in cAMP assay (in words)” value is given as “fully activated the receptor” and the Emax – broadly, the greatest response seen or fitted, relative to the assay's reference – came to 106 ± 8.4%.

For the compound `CC[C@H](C)[C@@H]1NC(=O)[C@H](CCCNC(=N)N)NC(=O)[C@H](CCCNC(=N)N)NC(=O)[C@H](CC(C)C)NC(=O)[C@H](Cc2ccccc2)NC(=O)CNC(=O)CNC(=O)[C@H](Cc2ccc(O)cc2)NC(=O)[C@@H]2CSSC[C@H](NC(=O)[C@H](CCCCN)NC(=O)[C@H](CC(C)C)NC(=O)[C@H](CCCCN)NC(=O)[C@@H]3CCCN3C(=O)[C@H](CCCNC(=N)N)NC1=O)C(=O)N[C@@H]([C@@H](C)O)C(=O)N[C@@H](CCCCN)C(=O)N[C@@H](CO)C(=O)N[C@@H]([C@@H](C)CC)C(=O)N1CCC[C@H]1C(=O)N1CCC[C@H]1C(=O)N[C@@H]([C@@H](C)CC)C(=O)N2` [helianorphin-2] (cyclo(CTKSIPPICYGGFLRRIRPKLK); disulfide 1-9), at mouse KOR [2], the “KOR activation in cAMP assay (in words)” value is on record as “fully activated the receptor” and the Emax was determined as 102 ± 10%.

Consider `CC[C@H](C)[C@@H]1NC(=O)[C@H](CCCNC(=N)N)NC(=O)[C@H](CCCNC(=N)N)NC(=O)[C@H](CC(C)C)NC(=O)[C@H](Cc2ccccc2)NC(=O)CNC(=O)CNC(=O)[C@H](Cc2ccc(O)cc2)NC(=O)[C@@H]2CSSC[C@H](NC1=O)C(=O)N[C@@H](Cc1ccccc1)C(=O)N1CCC[C@H]1C(=O)N[C@@H](CC(=O)O)C(=O)NCC(=O)N[C@@H](CCCNC(=N)N)C(=O)N2` [helianorphin-3], for which the maximal effect (Emax) at mouse KOR [2] amounted to 85.1 ± 1.8%.

`CC[C@H](C)[C@@H]1NC(=O)[C@H](CCCNC(=N)N)NC(=O)[C@H](CCCNC(=N)N)NC(=O)[C@H](CC(C)C)NC(=O)[C@H](Cc2ccccc2)NC(=O)CNC(=O)CNC(=O)[C@H](Cc2ccc(O)cc2)NC(=O)[C@@H]2CSSC[C@H](NC1=O)C(=O)N[C@@H]([C@@H](C)O)C(=O)N[C@@H](CCCCN)C(=O)N[C@@H](CO)C(=O)N[C@@H]([C@@H](C)CC)C(=O)N1CCC[C@H]1C(=O)N1CCC[C@H]1C(=O)N[C@@H]([C@@H](C)CC)C(=O)N2` [helianorphin-4] (cyclo(CTKSIPPICYGGFLRRI); disulfide 1-9): the Emax at mouse KOR [2] stood at 87.8 ± 33%.

On to `CC[C@H](C)[C@@H]1NC(=O)[C@H](CCCNC(=N)N)NC(=O)[C@H](CC(C)C)NC(=O)[C@H](Cc2ccccc2)NC(=O)CNC(=O)CNC(=O)[C@H](Cc2ccc(O)cc2)NC(=O)[C@@H]2CSSC[C@H](NC1=O)C(=O)N[C@@H](Cc1ccccc1)C(=O)N1CCC[C@H]1C(=O)N[C@@H](CC(=O)O)C(=O)NCC(=O)N[C@@H](CCCNC(=N)N)C(=O)N2` [helianorphin-5] (cyclo(CFPDGRCYGGFLRI); disulfide 1-7), for which the Ki (as a rule, the dissociation constant of the complex between target and ligand, obtained from inhibition or displacement) at mouse KOR [3] was over 10 µM.

Take `CC(C)C[C@@H]1NC(=O)[C@H](Cc2ccccc2)NC(=O)CNC(=O)CNC(=O)[C@H](Cc2ccc(O)cc2)NC(=O)[C@H]([C@@H](C)O)NC(=O)[C@@H]2CSSC[C@H](NC(=O)[C@H](CCCNC(=N)N)NC1=O)C(=O)N[C@@H](Cc1ccccc1)C(=O)N1CCC[C@H]1C(=O)N[C@@H](CC(=O)O)C(=O)NCC(=O)N[C@@H](CCCNC(=N)N)C(=O)N2` [helianorphin-6] (cyclo(CFPDGRCTYGGFLR); disulfide 1-7): the Ki on mouse KOR [3] was over 10 µM.

Consider `CC[C@H](C)[C@@H]1NC(=O)[C@@H]2CCCN2C(=O)[C@@H]2CCCN2C(=O)[C@H]([C@@H](C)CC)NC(=O)[C@H](CO)NC(=O)[C@H](C)NC(=O)[C@H]([C@@H](C)O)NC(=O)[C@@H]2CSSC[C@H](NC1=O)C(=O)N[C@@H](Cc1ccc(O)cc1)C(=O)NCC(=O)NCC(=O)N[C@@H](Cc1ccccc1)C(=O)N[C@@H](CC(C)C)C(=O)N[C@@H](CCCNC(=N)N)C(=O)N2` [helianorphin-7] (cyclo(ASIPPICYGGFLRCT); disulfide 7-14), for which the Ki at mouse KOR [3] was over 10 µM.

In the case of `CC[C@H](C)[C@@H]1NC(=O)[C@@H]2CCCN2C(=O)[C@@H](CCCCN)NC(=O)[C@@H](CC(C)C)NC(=O)[C@@H](Cc2ccccc2)NC(=O)[C@@H](Cc2ccccc2)NC(=O)[C@H]([C@@H](C)O)NC(=O)[C@@H]2CSSC[C@H](NC1=O)C(=O)N[C@@H](Cc1ccccc1)C(=O)N1CCC[C@H]1C(=O)N[C@@H](CC(=O)O)C(=O)NCC(=O)N[C@@H](CCCNC(=N)N)C(=O)N2` [helianorphin-10] (cyclo(CFPDGRCT[dF][dF][dL][dK]PI); disulfide 1-7), the inhibitory constant (Ki) at mouse KOR [3] is over 10 µM.

As to `CCCC[C@H]1NC(=O)[C@@H](Cc2ccccc2)NC(=O)[C@@H](Cc2ccccc2)NC(=O)[C@H]([C@@H](C)O)NC(=O)[C@@H]2CSSC[C@H](NC(=O)[C@H]([C@@H](C)CC)NC(=O)[C@@H]3CCCN3C(=O)[C@@H](CCCNC(=N)N)NC1=O)C(=O)N[C@@H](Cc1ccccc1)C(=O)N1CCC[C@H]1C(=O)N[C@@H](CC(=O)O)C(=O)NCC(=O)N[C@@H](CCCNC(=N)N)C(=O)N2` [helianorphin-12], on mouse KOR [2], the “KOR activation in cAMP assay (in words)” value was “fully activates the KOR” and the Emax stood at 117 ± 12%.

Regarding `CC[C@H](C)[C@@H]1NC(=O)[C@@H]2CSSC[C@H](NC(=O)[C@H](CCCCN)NC(=O)[C@H](CC(C)C)NC(=O)[C@H](CCCCN)NC(=O)[C@@H]3CCCN3C(=O)[C@H](CCCNC(=N)N)NC1=O)C(=O)N[C@@H](Cc1ccc(O)cc1)C(=O)NCC(=O)NCC(=O)N[C@@H](Cc1ccccc1)C(=O)N[C@@H](CC(C)C)C(=O)N[C@@H](CCCNC(=N)N)C(=O)N[C@@H](CCCNC(=N)N)C(=O)N2` [helianorphin-19] (cyclo(CIRPKLKCYGGFLRR); disulfide 1-8), the “rotarod performance (latency to fall)” value in data set [4] was “did not impair rotarod performance”. Moreover, the “β-arrestin-2 recruitment Emax” value in data set [5] is 41.1 ± 3.7% and 41%. In addition, the maximal effect (Emax) at mouse KOR [2] was 108 ± 11%.

Turning to `Oc1ccc2c3c1O[C@H]1c4[nH]c5c(c4C[C@@]4(O)[C@@H](C2)N(CC2CC2)CC[C@]314)C[C@@]1(O)[C@H]2Cc3ccc(O)c4c3[C@@]1(CCN2CC1CC1)[C@H]5O4` [nor-BNI, norbinaltorphimine], in data set [6] (0.1 μM nor-BNI plus 1 μM helianorphin-19), the “effect on helianorphin-19-induced inhibition of colonic nociceptor mechanosensitivity” value is given as “prevented helianorphin-19-induced inhibition of colonic nociceptor mechanosensitivity; also recorded: did block helianorphin-19 (1 μM)-induced inhibition of colonic nociceptor action potential firing”. Moreover, in data set [6] (0.1 μM, 5 min pre-incubation), the “colonic nociceptor mechanosensitivity, antagonist alone” value is given as “did not affect CVH colonic nociceptor responses to mechanical stimuli; also recorded: did not affect nociceptor mechanosensitivity”.

These data come from PMC8273886 (Journal of Medicinal Chemistry, 2021).
